Measurements published in patent US20260137814A1, “FLUORESCENT COMPOUNDS FOR ACCELERATED CANCER THERANOSTIC” (The Hong Kong University of Science and Technology, priority 2022, published 2026).

Columns and labels:
[1] = Absorption and emission spectra in solution; format: physicochemical
Description: Expectedly, the emission spectrum of TBT-2(1P-DPA), and TBT-2(2P-DPA) both ends below 1000 nm, while the emission maximum of TBT-2(TP-DPA) was 1046 nm when upon 808 nm excitation (FIG. 3d). […] The experimental characterization is in consistency with our theoretical hypothesis, which made TBT-2(TP-DPA) ideal candidates as the template of NIR-II theranostic agents.

[2] = Absolute fluorescence quantum yield in the NIR region; format: physicochemical; details: in toluene, under 808 nm excitation
Protocol: Under 808 nm excitation, the absolute quantum yield of TBT-2(TP-DPA) in the NIR region was determined to be 10.4% in toluene.

Compound	absorption ended up to ([1]; in THE solution) [nm]	absorption peak ([1]; in THE solution)	emission wavelength extended to [1] [nm]	emission maximum ([1]; upon 808 nm excitation) [nm]	absolute quantum yield in the NIR region [2] [%]
CCCCC(CC)Cn1nc2c(-c3ccc(N(c4ccc(OC)cc4)c4ccc(OC)cc4)cc3)c3c(c(-c4ccc(N(c5ccc(OC)cc5)c5ccc(OC)cc5)cc4)c2n1)N=S=N3 (stereo not drawn) [TBT-2(1P-DPA)]	800	580 nm	–	–	–
CCCCC(CC)Cn1nc2c(-c3ccc(-c4ccc(N(c5ccc(OC)cc5)c5ccc(OC)cc5)cc4)s3)c3c(c(-c4ccc(-c5ccc(N(c6ccc(OC)cc6)c6ccc(OC)cc6)cc5)s4)c2n1)N=S=N3 (stereo not drawn) [TBT-2(TP-DPA)]	–	around 800 nm	~1500	1046	10.4
